In patent US20220023172A1, “COSMETIC COMPOSITIONS AND METHODS OF USE” (STC.UNM, priority 2018, published 2022):

| SMILES | melting point [°C] |
| --- | --- |
| COc1ccccc1/C=C/c1ccccc1F | 34 to 35 |
| Cc1ccc(/C=C/c2ccc(F)c(F)c2)cc1 | 90 to 92 |
| Fc1ccc(/C=C/c2ccccc2F)cc1F | 85 to 86 |
| Fc1ccc(F)c(/C=C/c2ccccc2F)c1 | 79 to 81 |
| Fc1cccc(/C=C/c2ccc(F)c(F)c2)c1 | 48 to 49 |
| Fc1cccc(/C=C/c2cc(F)ccc2F)c1 | 73 to 74 |
| Fc1cccc(/C=C/c2ccc(F)cc2F)c1 | 60 to 61 |
| Fc1ccc(/C=C/c2ccccc2F)c(F)c1 | 84 to 85 |

Results, then the compound that gave them:

| melting point [°C] | SMILES |
| --- | --- |
| 50 to 51 | COc1cccc(/C=C/c2ccc(F)cc2)c1OC |
| 58 to 59 | COc1ccc(OC)c(/C=C/c2ccc(F)cc2)c1 |
| 109 to 110 | COc1ccc(/C=C/c2cc(F)ccc2F)cc1 |
| 73 to 74 | COc1ccc(/C=C/c2ccc(F)c(F)c2)cc1 |
| 72 to 73 | Cc1ccc(/C=C/c2ccc(F)cc2F)cc1 |
| 76 to 77 | Fc1ccc(/C=C/c2cc(F)ccc2F)cc1 |
| 38 to 40 | COc1cccc(/C=C/c2ccc(C)cc2)c1OC |
| 49 to 50 | COc1cccc(/C=C/c2ccccc2OC)c1 |
| 48 to 49 | COc1cccc(/C=C/c2cc(OC)ccc2OC)c1 |
| 67 to 69 | COc1cccc(/C=C/c2ccc(C(F)(F)F)cc2)c1OC |
